Results from patent US4044043A, “Derivatives of 9-oxo-13-trans-prostenoic acid esters” (American Cyanamid Company, priority 1975, dated 1977).
≈ marks a conversion by molar mass, not a printed value.

What was measured:
gastric acid secretion = assay: Inhibition of Gastric Acid Secretion (Pylorous-Ligated Rat), Shay rat procedure; format: in vivo, rats (male, CFE strain); conditions: 100 mg./kg. intraduodenal, read-out: % Inhibition of Control Gastric Acid Secretion
From the text: The novel compounds of the present invention are also effective inhibitors of gastric acid secretion and of ulcer development in experimental animals, and thus are potentially valuable as agents for the control of gastric acid secretion and of gastric erosion and as anti-ulcer agents. Gastric acid secretion inhibitory action is usually measured by the Shay rat procedure ^(1,2) with some modifications as follows. 6 1. Shay et al., Gastroenterology, 5, 43 (1945). 6 2. Shay et al., Gastroenterology, 26, 906 (1954).
The rats (male, CFE strain) were starved for 48 hours (water was given ad libitum) to permit evacuation of stomach contents. On the morning of the experiment, under ether anesthesia, the abdominal region was shaved and a midline incision (1-1 1/2 inch) was made with a scalpel. With the help of a closed curved hemostat the duodenum was picked up. Upon getting the duodenum into view fingers were used to pull the stomach through the opening, the stomach was then gently manipulated with fingers to rid stomach of air and residual matter which were pushed through the pylorus. Two 5-inch sutures were drawn under the pyloric-duodenal puncture. A ligature, at the juncture, was formed with one of the threads. The second ligature was also formed but not tightened.
The test compound or the vehicle, usually 1 ml./100 g. body weight, were injected into the duodenum as close as possible to the first ligature. After injection the second ligature was tightened below the injection site to minimize leakage. The stomach was placed back through the opening into the abdominal cavity, the area of incision was washed with saline and the incision was closed with autoclips. (Ocasionally instead of an intraduodenal injection, animals were dosed by the oral or subcutaneous route. In the latter case, dosing was done thirty to sixty minutes before the operation).
The abdominal cavity was exposed by cutting with scissors and the esophagus close to the stomach was clamped off with a hemostat, the stomach was removed by cutting above the hemostat (the esophagus was cut) and between the two sutures. Extraneous tissue was removed, the stomach washed with saline and blotted on gauze. A slit was carefully made in the stomach which was held over a funnel and the contents were collected in a centrifuge tube. The stomach was further cut along the outside edge and turned inside out. Two ml. of water were used to wash the stomach contents into the respective centrifuge tube. The combined stomach contents and wash were then centrifuged out for 10 minutes in the International Size 2 Centrifuge (setting at 30). The supernatant was collected, volume measured and recorded, 2 drops of phenolphthalein indicator (1% in 95% ethanol) were added and the solution was titrated with 0.02N NaOH (or with 0.04N NaOH when large volumes of stomach contents were encountered) to pH 8.4 (because of usual coloring of the stomach contents, phenolphthalein was only used to permit visual indication that the end point was near) and the amount of acid present was calculated.
Compounds inducing inhibition of gastric acid secretion of 20% or more were considered active. In a representative operation, and merely by way of illustration, the results obtained with this assay with typical compounds of the present invention are given in Table IIIA.

[1] = system: dl-PGE1-induced contraction of gerbil colon; assay: Inhibition of dl-PGE1-Induced Contraction of Gerbil Colon (prostaglandin antagonist action); format: cell-based, gerbils (Meriones unguiculatus); conditions: for IC50: Meriones unguiculatus, 1 min, sub-maximal challenge, 20 ng./ml. dl-PGE1, 50% inhibition of maximum response, read-out: ID50 vs. 20 ng. of PGE1/ml.
Procedure: The compounds of this invention are also useful as antagonists of prostaglandin action and accordingly they are potentially useful as anti-inflammatory agents, and as agents for the treatment of periodontal diseases and diarrhea. Testing for prostaglandin antagonist action is carried out in the following manner. Sections of ascending colon, approximately 20 mm. long, from mature male gerbils (Meriones unguiculatus) weighing 70-80 g. were mounted in De Jalon's solution (154 mM NaCl; 5.95 mM NAHCO3; […], 5.64 mM KC and .27 mM CaCl2 in 20 ml. tissue baths) (L and K Glass Co., Lynnhurst, N.J.). The medium was continually gassed with a mixture of 95% 02 -5% CO2 and maintained at 37° C. The tissues were suspended via silk suture threads between a glass hook at the base and a model FT .03C force displacement transducer (Grass Instruments, Quincy, Massachusetts). Contractions were recorded on a Poly-Viso ® polygraph (Sanborn Co., Cambridge, Massachusetts). After mounting, tissues were allowed to stabilize 15-20 minutes during which time adjustments were made to establish and maintain a 0.5 g. resting tension on the muscle. Thereafter, test cycles of 3-5 minutes were begun and consisted of a 1 minute exposure to the potential antagonist, if called for, followed by a 1 minute exposure to the prostaglandin agonist, a 15-30 sec. washout and a recovery period of 2-2.5 minutes. […] During the washout period, the tissue was rinsed with a measured amount equalling 8 volumes of medium. Muscle relaxation was virtually complete by the end of the washout period. During preliminary tests it was noted that a final concentration of 200 ng./ml. of a racemic mixture of synthetic prostaglandin-E1 (dl-PGE1) produced maximal muscle contraction. Following stabilization, muscles were exposed 2 to 3 times to this concentration of dl-PGE1 until a consistent response was recorded. Once maximal responses were established, test cycles with potential antagonists were commenced and were followed alternately with prostaglandin-only test cycle. […] The contraction of the muscle induced by 200 ng./ml. dl-PGE1 following exposure to a given concentration of the potential antagonist was always compared to the response of the tissue to that level of dl PGE1 in the immediately preceding cycle. Using a series of potential antagonist concentrations, an approximate ID50 (concentration at which 50% inhibition was observed) was established. The compounds were also tested against a sub-maximal prostaglandin challenge (20 ng./ml. dl-PGE1) in which case activity is reported in terms of a 50% inhibition of maximum response.

diastolic blood pressure = assay: Prostaglandin-like hypotensive activity in anesthetized rats (minimal dose for about 10 mm. decrease in diastolic blood pressure); format: in vivo, Male Wistar strain rats; conditions: Rattus norvegicus; intravenous; decrease of about 10 mm. in diastolic blood pressure
Procedure: This procedure is a modification of the technique described by Pike et al., Prostaglandins, Nobel Symposium 2, Stockholm, June, 1966; p, 165.
Male Wistar strain rats (Royal Hart Farms) averaging approximately 250 grams in weight were fastened to rat boards in a supine position by means of canvas vests and limb ties. The femoral area was infiltrated subcutaneously with lidocaine and the iliac artery and vein exposed and cannulated. Arterial blood pressure (systolic/diastolic) was recorded using a Statham P23 Db pressure transducer-Offner dynograph system. To obtain a stable blood pressure, the animals were anesthetized before use with pentobarbital, 30 mg./kg. of body weight intravenously, and also were given hexamethonium bitartrate, 2 mg./kg. of body weight intravenously. The test compounds were prepared by ultrasonic dispersion in a saline-Tween 80 ® vehicle. A constant intravenous dose volume of 0.5 ml. was administered and test doses ranged from 0.1 to 10.0 mg./kg. of body weight. Increasing or decreasing doses were selected depending on the dose response obtained. In Table I below are set forth the minimal doses required to produce a decrease of about 10 mm. in diastolic blood pressure for typical compounds of the present invention.

[2] = system: Mycobacterium smegmatis ATCC 606; assay: agar-dilution streak-plate antimicrobial assay; format: cell-based; conditions: Mycolicibacterium smegmatis, ATCC606, read-out: Minimal inhibitory conc. (6)
Procedure: The novel compounds of the present invention are also useful as antimicrobial agents. […] In this assay, the compounds to be tested are made up to contain 2.5 mg. of test compound per milliliter of solution. Observing sterile techniques, two-fold serial dilution are made of each test solution. One milliliter of each of the original solutions and of each of the serial dilutions is then added to 9 ml. of warm sterile nutrient agar capable of supporting growth of the bacterial test cultures. A second set of agar dilutions is prepared identical to the first except that the nutrient agar is designed to support the growth of the fungal test cultures. […] The test bacteria and yeast-like fungi are prepared for use by growing in broth overnight. The spores of the filamentous fungi are harvested from mature agar slant cultures and are suspended in sterile physiological saline solution. A loopful of each of the resulting live suspensions is then, still employing sterile techniques, streaked upon the surfaces of each of the agar plates and the resulting streaked plates are then incubated. After an appropriate period of time, each of the streaks on each of the plates is inspected visually and the extent, if any, of bacterial or fungal growth is noted. The minimal inhibitory concentration (expressed in micrograms per milliliter) is defined as the concentration of test compound causing complete inhibition of growth of any particular organism. In a representative operation, and merely by way of illustration, the minimal inhibitory concentration of typical compounds of the present invention against a variety of test organisms as determined in the above-described assay are set forth in Tables II and III below: […]

| Structure (SMILES) | inhibition in vivo at 100 mg/kg (gastric acid secretion) | further results |
| --- | --- | --- |
| CCCCCC/C=C/[C@@H]1CCC(=NNc2cc(Cl)ccc2Cl)[C@H]1CCCCCCC(=O)O (relative stereo) [9-Oxo-13-trans-prostenoic acid 2,5-dichlorophenylhydrazone] | 30% | – |
| CCC/C=C/[C@@H]1CCCC(=O)[C@H]1CCCCCCC(=O)O (relative stereo) [9-oxo-18,19,20-trinor-10a-homo-13-trans-prostenoic acid] | 39% | IC50 [1]: 1 µg/mL (≈ 3.4 µM) |
| CC[S+]([O-])CCC/C=C/[C@@H]1CCC(=O)[C@H]1CCCCCCC(=O)O (relative stereo) [9-oxo-18-oxythia-13-trans-prostenoic acid] | – | minimal effective dose (diastolic blood pressure): 2 to 8 mg/kg |
| CC(C)/C=C/[C@H]1CCC(=O)[C@@H]1CCCCCCC(=O)O (relative stereo) [15-methyl-9-oxo-17,18,19,20-tetranor-13-trans-prostenoic acid] | – | IC50 [1]: 25 to 30 µg/mL (≈ 89.2 to 107 µM) |
| CCCCCC/C=C/[C@@H]1CCC(=O)[C@H]1CCCCCCC(=O)OCCCC (relative stereo) [butyl 9-oxo-13-trans-prostenoic acid] | 46% | – |
| CCCCC[C@H](O)/C=C/[C@H]1[C@H](O)CC(=O)[C@@H]1CCCCCCC(=O)O (relative stereo) [dl-PGE1, prostaglandin-E1, reference compound] | – | final concentration that produced maximal muscle contraction ([1]; agonist alone, preliminary tests): 200 ng/mL |
| CCC/C=C/[C@@H]1CCC(=O)[C@H]1CCCCOCC(=O)OCC (relative stereo) [ethyl 9-oxo-3-oxa-18,19,20-trinor-13-trans-prostenoate] | 65% | – |
| CCCCCC/C=C/[C@@H]1CCC(=O)[C@H]1CCCCSCC(=O)OCC (relative stereo) [ethyl 9-oxo-3-thia-13-trans-prostenoate] | 39% | – |
| CCCCCC/C=C/[C@H]1CCC(=O)[C@@H]1CCCCC(=O)OCC (relative stereo) [ethyl 9-oxo-6,7-dinor-13-trans-prostenoate] | – | MIC [2]: 250 µg/mL (≈ 775 µM) |
| CCCCCC/C=C/[C@H]1CCCC(=O)[C@@H]1CCCCCCC(=O)OCC (relative stereo) [ethyl 9-oxo-10a-homo-13-trans-prostenoate] | 46% | minimal effective dose (diastolic blood pressure): 2 mg/kg |
| CC/C=C\CC/C=C/[C@H]1CCC(=O)[C@@H]1CCCCCCC(=O)OCC (relative stereo) [ethyl 9-oxo-13-trans-17-cis-prostadienoate] | – | minimal effective dose (diastolic blood pressure): 0.2 to 2 mg/kg |
| CCCCCC/C=C/[C@H]1CCC(=O)[C@@H]1CCCCCCC(=O)OCC (relative stereo) [ethyl 9-oxo-13-trans-prostenoate] | 28% | minimal effective dose (diastolic blood pressure): 0.5 mg/kg |
| CCC/C=C/[C@H]1CCCC(=O)[C@@H]1CCCCCCC(=O)OCC (relative stereo) [ethyl 9-oxo-18,19,20-trinor-10a-homo-13-transprostenoate] | 37% | – |
| CCOC(=O)CCCCCC[C@H]1C(=O)CC[C@@H]1/C=C/CCCS(=O)(=O)CC (relative stereo) [ethyl 9-oxo-18-dioxythia-13-trans-prostenoate] | 34% | – |
| CCOC(=O)CCCCCC[C@H]1C(=O)CC[C@@H]1/C=C/CCCCCCI (relative stereo) [ethyl 20-iodo-9-oxo-13-trans-prostenoate] | 42% | MIC [2]: 62 µg/mL (≈ 130 µM) |
| CCCCCCC/C=C/[C@H]1CCC(=O)[C@@H]1CCCCCCC(=O)OCC (relative stereo) [ethyl 20-methyl-9-oxo-13-trans-prostenoate] | 36% | minimal effective dose (diastolic blood pressure): 0.5 mg/kg |
| CCCCCCC=CC1CC(c2ccccc2)C(=O)C1CCCCCCC(=O)OCC (stereo not drawn) [Ethyl 9-oxo-10-phenyl-13-trans-prostenoate] | 24% | – |
| CCCCCCC=CC1CC(C#N)C(=O)C1CCCCCCC(=O)OCC (stereo not drawn) [Ethyl 10-cyano-9-oxo-13-trans-prostenoate] | – | IC50 [1]: 10 to 25 µg/mL (≈ 26.6 to 66.6 µM) |
| CCCCCCC=CC1CC(F)C(=O)C1CCCCCCC(=O)OCC (stereo not drawn) [Ethyl 10-fluoro-9-oxo-13-trans-prostenoate] | 25% | – |
| CCCCCCC=CC1CC(SC)C(=O)C1CCCCCCC(=O)OCC (stereo not drawn) [Ethyl 10-methylthio-9-oxo-13-trans-prostenoate] | 35% | – |
| CCCCCC/C=C/[C@H]1CCC(O)[C@@H]1CCCCCCC(=O)OCC (stereo partly drawn) [ethyl 9-hydroxy-13-trans-prostenoate, ethyl 9α- and 9β-hydroxy-13-trans-prostenoate] | – | MIC [2]: 25 µg/mL (≈ 70.9 µM) |
| CCCC=CC1CCC(=O)C1CCCCCC(F)C(=O)OCC (stereo not drawn) [ethyl 9-oxo-2-fluoro-18,19,20-trinor-13-trans-prostenoate] | 84% | – |
